Results on 38 compounds are retold here after PubChem BioAssay (NCI).

Structures are written as SMILES.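 In this assay, cells in 96-well plates receive the compound at five concentrations for 48 hours. Endpoints are linearly interpolated between the surrounding concentrations. Abbreviation: GI50, concentration required for 50% inhibition of growth. The concentration for full growth arrest is given as TGI.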

The first assay has as its system MDA-N. Nature of the assay: growth of human tumour cells (NCI), 48 h.
Take `Cc1cc2c(Br)cc(Br)c(O)c2nc1C(=O)c1ccccc1`: the TGI amounted to 96.3 µM.
Same read-out and setting: as for `Cc1ccccc1Nc1nc2c(s1)C(=O)c1ccccc1C2=O`, the figure is 3.37 µM; as for `CC(=O)NNc1nc(C)c(C(=O)NNC(=O)C(=O)Nc2nc3ccc([N+](=O)[O-])cc3s2)s1`, > 100 µM.

Another assay relates to RXF-631 renal. The experiment in a line: growth of human tumour cells (NCI), 48 h.
Consider `Cl[Si]1(Cl)Oc2ccccc2O[Si](Cl)(Cl)Oc2ccccc2O1`, for which the TGI is > 100 µM.
Turning to `C[n+]1c2ccccc2cc2c(CNC(CCCN=C(N)N)C(=O)O)cccc21` (stereo not given), the TGI was found to be 12.6 µM.
With `C=CCC1[C@@H](C(C)(C)C(C(C)=O)C(=O)C(=O)OC)OC(C(C)(C)C)N1C(=O)OC` (stereo not given in full), the TGI is > 100 µM.
Same read-out and setting: as for `COc1c(Br)cc(Br)c(OC)c1-c1[nH]c(Br)c(Br)c1Br`, the figure is 21.9 µM; as for `CCOC(=O)c1ccc(N[C@@H]2c3cc4c(cc3C(C3=CC(=O)C(=O)C(OC)=C3)[C@H]3C(=O)OCC32)OCO4)cc1` (stereo not given in full), 10 µM.
Turning to `CC(=O)NNc1nc(C)c(C(=O)NNC(=O)C(=O)Nc2nc3ccc([N+](=O)[O-])cc3s2)s1`, the TGI is > 100 µM.
On the same count and under the same terms, for `CC(CC(=O)Nc1ccc(NC(=O)CC(C)N=NC(N)=S)cc1)N=NC(N)=S` (stereo not given) the value was > 100 µM; for `COC(=O)/C(C#N)=C1\CCC(C(=O)OC)N1C` (stereo not given), > 100 µM.
`CSc1c(C)c(C)nn1-c1ccccc1`: the TGI was > 100 µM.
With `CC1=C(C(=O)Nc2ccccc2C)C(/C=C/c2ccccc2)C(C(=O)Nc2ccccc2C)=C(C)N1`, the TGI was > 100 µM.
Still for that read-out and setting: for `CC(C)c1ccccc1NC(=O)/C(Cl)=C1/Sc2ccccc2NC1=O` the value was > 100 µM.
The same measure, in the same setting: as for `CCN(CC)CC(=O)N1CCc2c([nH]c3ccccc23)C1c1cccnc1` (stereo not given), the figure is > 100 µM; as for `CCCCCCCCCCCCCC(=O)OCC1OC(=O)CC1O` (stereo not given), > 100 µM.
As for `CC1(Cc2ccccc2)NC(=S)NC1=O` (stereo not given), the TGI was > 100 µM.
Consider `Cc1ccc(S(=O)(=O)N/N=C(\c2nc3ccc([N+](=O)[O-])cc3[nH]c2=O)C(O)c2ccccc2Cl)cc1` (stereo not given), for which the TGI was > 100 µM.
Regarding `O=C1C2=C(c3ccccc31)C(c1ccccc1Cl)N1C(=O)CCSC1=N2` (stereo not given), the TGI was > 100 µM.
`O=C/C(=C(/Cl)c1ccc(O)cc1)c1ccccc1`: the TGI is > 31.6 µM.

For a further assay, the system named is PC-3 prostate. The experiment in a line: growth of human tumour cells (NCI), 48 h.
With `Cc1cc2c(Br)cc(Br)c(O)c2nc1C(=O)c1ccccc1`, the TGI was > 100 µM.
Compound `Cc1ccccc1Nc1nc2c(s1)C(=O)c1ccccc1C2=O` gave a TGI of 7.95 µM.
The same measure, in the same setting: as for `CC(=O)NNc1nc(C)c(C(=O)NNC(=O)C(=O)Nc2nc3ccc([N+](=O)[O-])cc3s2)s1`, the figure is > 100 µM.

Another assay concerns HOP-18 NSCLC. Nature of the assay: growth of human tumour cells (NCI), 48 h.
Take `CC1(c2ccccc2)CC(c2ccccc2)=NO1` (stereo not given): the TGI was > 100 µM.
On the same count and under the same terms, for `COc1cccc(/C=C2\CCC(C)(CN(C)C)C2=O)c1` (stereo not given) the value was > 100 µM.
Same read-out and setting: as for `C[n+]1c2ccccc2cc2c(CNC(CCCN=C(N)N)C(=O)O)cccc21` (stereo not given), the figure is 15.5 µM; as for `Cc1cc2c(Br)cc(Br)c(O)c2nc1C(=O)c1ccccc1`, 70.4 µM.
Regarding `CC(=O)[O-].CC(=O)[O-].CC(=O)[O-].CC(=O)[O-].[Mo+2].[Mo+2]`, the GI50 is > 100 µM and the TGI is > 100 µM.
`C=CCC1[C@@H](C(C)(C)C(C(C)=O)C(=O)C(=O)OC)OC(C(C)(C)C)N1C(=O)OC` (stereo not given in full): the TGI is > 100 µM.
On the same count and under the same terms, for `CC1(C)OC2COC3(CNO)OC(C)(C)OC3C2O1` (stereo not given) the value was > 100 µM; for `CCOC(=O)C(=O)Nc1ccccc1C(F)(F)F`, > 100 µM.
Same read-out and setting: as for `COc1ccc(Nc2nc3ccccc3nc2-c2cccs2)cc1`, the figure is > 100 µM; as for `Cc1ccccc1Nc1nc2c(s1)C(=O)c1ccccc1C2=O`, 24.9 µM; as for `Cc1nnc(N/N=C(/C(=O)C(C#N)c2ccccc2)C(C#N)c2ccccc2)n1N` (stereo not given), 28.6 µM.
The same measure, in the same setting: for `COc1c(Br)cc(Br)c(OC)c1-c1[nH]c(Br)c(Br)c1Br` the value was 9.05 µM; for `CNC(SC)=C1C(=O)OC(C)(C)OC1=O`, > 100 µM; for `NC(=O)/C=C/C(=O)O`, > 5000 µM.
As to `CC(CC(=O)Nc1ccc(NC(=O)CC(C)N=NC(N)=S)cc1)N=NC(N)=S` (stereo not given), the TGI was > 100 µM.
With `C#CCC(N)(CO)C(=O)O` (stereo not given), the TGI is > 100 µM.
As to `CC(=O)OC1COC(n2c(=S)n(-c3ccccc3)c(=O)c3cc(Br)ccc32)C(OC(C)=O)C1OC(C)=O` (stereo not given), the TGI was > 100 µM.
On to `CC1=C(C(=O)Nc2ccccc2C)C(/C=C/c2ccccc2)C(C(=O)Nc2ccccc2C)=C(C)N1`, for which the TGI was > 100 µM.
On the same count and under the same terms, for `CC(=O)OCC1OC(n2cc([N+](=O)[O-])c(=O)[nH]c2=O)C(OC(C)=O)C(OC(C)=O)C1OC(C)=O` (stereo not given) the value was > 100 µM; for `Cc1cn(C2OC(C)(CO)C(O)C2O)c(=O)[nH]c1=O` (stereo not given), > 100 µM; for `O=c1ncccn1C1C=C(CO)C(O)C1O` (stereo not given), > 50 µM.
Take `CCN(CC)CC(=O)N1CCc2c([nH]c3ccccc23)C1c1cccnc1` (stereo not given): the TGI was > 100 µM.
On the same count and under the same terms, as for `O=c1c(Cl)c(Cl)cnn1CCc1ccncc1`, the figure is 34.2 µM.
On the same count and under the same terms, for `CCCCCCCCCCCCCC(=O)OCC1OC(=O)CC1O` (stereo not given) the value was 67.3 µM; for `N=S(c1ccccc1)c1ccccc1[N+](=O)[O-]` (stereo not given), > 100 µM; for `CC1(Cc2ccccc2)NC(=S)NC1=O` (stereo not given), 8.35 µM.
Consider `Cc1ccc(S(=O)(=O)N/N=C(\c2nc3ccc([N+](=O)[O-])cc3[nH]c2=O)C(O)c2ccccc2Cl)cc1` (stereo not given), for which the TGI is > 100 µM.
Same read-out and setting: for `COC1OC(C)C(OCc2ccccc2)C(OS(=O)(=O)c2ccc(C)cc2)C1OS(=O)(=O)c1ccc(C)cc1` (stereo not given) the value was > 100 µM.
Consider `O=C/C(=C(/Cl)c1ccc(O)cc1)c1ccccc1`, for which the TGI is > 31.6 µM.

A further assay has as its system KM20L2 colon. The experiment in a line: growth of human tumour cells (NCI), 48 h.
As for `COc1cccc(/C=C2\CCC(C)(CN(C)C)C2=O)c1` (stereo not given), the TGI is > 100 µM.
The same measure, in the same setting: for `Cl[Si]1(Cl)Oc2ccccc2O[Si](Cl)(Cl)Oc2ccccc2O1` the value was > 100 µM.
As for `C[n+]1c2ccccc2cc2c(CNC(CCCN=C(N)N)C(=O)O)cccc21` (stereo not given), the GI50 was 0.346 µM and the TGI stood at 12.3 µM.
Compound `Cc1cc2c(Br)cc(Br)c(O)c2nc1C(=O)c1ccccc1` showed a TGI of 82.5 µM.
For `CC(=O)[O-].CC(=O)[O-].CC(=O)[O-].CC(=O)[O-].[Mo+2].[Mo+2]`, the GI50 was > 100 µM and the TGI is > 100 µM.
Regarding `C=CCC1[C@@H](C(C)(C)C(C(C)=O)C(=O)C(=O)OC)OC(C(C)(C)C)N1C(=O)OC` (stereo not given in full), the TGI was > 100 µM.
With `CCOC(=O)C(=O)Nc1ccccc1C(F)(F)F`, the TGI is > 100 µM.
For `COc1ccc(Nc2nc3ccccc3nc2-c2cccs2)cc1`, the TGI is > 100 µM.
`Cc1ccccc1Nc1nc2c(s1)C(=O)c1ccccc1C2=O`: the TGI is > 65.4 µM.
Still for that read-out and setting: as for `Cc1nnc(N/N=C(/C(=O)C(C#N)c2ccccc2)C(C#N)c2ccccc2)n1N` (stereo not given), the figure is > 100 µM; as for `COc1c(Br)cc(Br)c(OC)c1-c1[nH]c(Br)c(Br)c1Br`, 22.4 µM.
Still for that read-out and setting: as for `CCOC(=O)c1ccc(N[C@@H]2c3cc4c(cc3C(C3=CC(=O)C(=O)C(OC)=C3)[C@H]3C(=O)OCC32)OCO4)cc1` (stereo not given in full), the figure is 32.1 µM; as for `CNC(SC)=C1C(=O)OC(C)(C)OC1=O`, > 100 µM.
Still for that read-out and setting: for `CC(=O)NNc1nc(C)c(C(=O)NNC(=O)C(=O)Nc2nc3ccc([N+](=O)[O-])cc3s2)s1` the value was > 100 µM; for `CC(CC(=O)Nc1ccc(NC(=O)CC(C)N=NC(N)=S)cc1)N=NC(N)=S` (stereo not given), > 100 µM.
For `COC(=O)/C(C#N)=C1\CCC(C(=O)OC)N1C` (stereo not given), the TGI is > 100 µM.
On to `CSc1c(C)c(C)nn1-c1ccccc1`, for which the TGI is > 100 µM.
On the same count and under the same terms, for `CC(=O)OC1COC(n2c(=S)n(-c3ccccc3)c(=O)c3cc(Br)ccc32)C(OC(C)=O)C1OC(C)=O` (stereo not given) the value was > 100 µM; for `CC1=C(C(=O)Nc2ccccc2C)C(/C=C/c2ccccc2)C(C(=O)Nc2ccccc2C)=C(C)N1`, > 100 µM; for `CC(C)c1ccccc1NC(=O)/C(Cl)=C1/Sc2ccccc2NC1=O`, 59.7 µM.
For `Cc1cc(N(CCC#N)CCC#N)ccc1/C=C1N=C(/C=C/c2ccccc2)OC(=O)N\1`, the TGI is > 100 µM.
Take `CC(=O)OCC1OC(n2cc([N+](=O)[O-])c(=O)[nH]c2=O)C(OC(C)=O)C(OC(C)=O)C1OC(C)=O` (stereo not given): the TGI was > 100 µM.
Turning to `O=C1C=C(O)c2[nH]c(=O)ccc2C1=O`, the TGI was > 100 µM.
Consider `O=c1ncccn1C1C=C(CO)C(O)C1O` (stereo not given), for which the TGI is > 50 µM.
On the same count and under the same terms, as for `CCN(CC)CC(=O)N1CCc2c([nH]c3ccccc23)C1c1cccnc1` (stereo not given), the figure is > 100 µM; as for `O=c1c(Cl)c(Cl)cnn1CCc1ccncc1`, 36.2 µM.
Turning to `CCCCCCCCCCCCCC(=O)OCC1OC(=O)CC1O` (stereo not given), the TGI is > 100 µM.
On the same count and under the same terms, as for `N=S(c1ccccc1)c1ccccc1[N+](=O)[O-]` (stereo not given), the figure is 41.5 µM.
With `CC1(Cc2ccccc2)NC(=S)NC1=O` (stereo not given), the TGI was > 100 µM.
Same read-out and setting: as for `Cc1ccc(S(=O)(=O)N/N=C(\c2nc3ccc([N+](=O)[O-])cc3[nH]c2=O)C(O)c2ccccc2Cl)cc1` (stereo not given), the figure is > 100 µM.
